Data published in PubChem BioAssay AID2060359 (Molecular Pharmacology Branch, DTP, NCI, 2025).
Values joined by “and” are separate entries in the source; they are usually repeats but may differ in a detail not shown here. Equal values may be shown once.

Test system: 276233-004-R-J1-PDC spheroids with HUVEC/MSC, viability
Assay: Anticancer human tumor 276233-004-R-J1-PDC patient-derived colon adenocarcinoma cell line growth inhibition [TAK]
Settings: for viability, T/C: stronger effect = lower value
Description: Combinatorial screen of targeted agents with TAK-243 and ipatasertib in multi-cell type tumor spheroids
A high-throughput screen of multi-cell type tumor spheroids was designed to identify active combinations of targeted small molecules and TAK-243 or ipatasertib. Complex spheroids include a stromal component modeled by human endothelial cells (HUVEC) and fibroblasts modeled by human mesenchymal stem cells (MSCs). The concentration ranges selected for each drug and investigational agent were based upon clinically achievable concentrations if the clinical Cmax of the agent was known.
Compounds. The drugs and investigational agents: TAK-243 (785004), ipatasertib (767898), everolimus (733504), selumetinib (741078), bortezomib (756655), trametinib (758246), ixazomib (758254), vemurafenib (761431), dabrafenib (764134), sapanisertib (764658), alpelisib (765974), and copanlisib (816437), were obtained from the National Cancer Institute (NCI) Developmental Therapeutics Program Chemical Repository. The FDA-approved anticancer drug set is available from the NCI Developmental Therapeutics Program. […] The stock solutions were prepared in dimethyl sulfoxide (DMSO, Sigma-Aldrich, St. Louis, MO, cat. D2650) at 800-fold the tested concentration and stored at -70 degrees C prior to their use. All drugs and investigational agents were tested over a range starting from a high concentration at or near the clinical Cmax and decreasing in half-log increments. If the clinical Cmax for an agent had not been determined, the highest concentration tested was 10 microM.
NCI60 Cell Culture. NCI60 cell lines were obtained from the NCI Developmental Therapeutics Program Tumor Repository. For each lot of cells, the Repository performed Applied Biosystems AmpFLSTR Identifiler testing with PCR amplification to confirm consistency with the published Identifier STR profile for each cell line. Cells were kept in continuous culture for no more than 20 passages. The optimal seeding densities for each of the cell lines at each time point assessed were determined prior to performing the concentration response studies. Briefly, the NCI60 human tumor lines were grown as monolayers in RPMI 1640 medium supplemented with 10% FBS and 2 mmol/L L-glutamine.
An additional 2 lines were from the NCI60 cell line panel including melanomas, MALME-3M and SK-MEL-2. Pooled donor human umbilical vein endothelial cells (HUVEC, Lonza, cat. CC-2519) and human mesenchymal stem cells (hMSC, Lonza, cat. PT-2501) were purchased from Lonza (Walkersville, MD).
PDMR cell lines were grown in complete medium (DC medium): Dulbecco's modified Eagle's medium (DMEM)/F12 supplemented with 5% fetal bovine serum (FBS), 2 mM L-glutamine, 100 U/mL penicillin and 100 µg/ml streptomycin, 0.4 µg/ml hydrocortisone, 10 ng/ml epidermal growth factor (EGF) recombinant human protein, 24 µg/mL adenine, and 0.1 mg/mL primocin. During culture from frozen stock vials, PDMR cells were cultured in the same medium containing 10 µM Y-27632 (see Table 3). The PDCs were cultured in complete DMEM/F12 media without 10 microM Y-27632 dihydrochloride for at least two passages prior to the screen. The pooled donor HUVEC and hMSC were cultured in endothelial cell growth medium 2 (PromoCell, Heidelberg, Germany, cat. C-22011) and mesenchymal stem cell growth medium 2 (PromoCell, cat. C-28009), respectively. For all experiments, HUVEC and hMSC were used at passages </=5.
For the pre-screen, cell seeding densities were determined from a titration spanning the range from 5,000 to 313 cells per well. The mct-spheroids including 60% malignant cells, 25% HUVEC and 15% MSC dispensed as a mixture into U-bottom Ultra-Low Attachment 384-well plates (Corning, NY)
High-throughput Drug Combination Screening.
Prior to their inoculation into 384-well plates, malignant cells, HUVEC, and hMSC were removed from T flasks using TrypLE express (Thermo Fisher Scientific, cat. 12605036) and harvested by centrifugation for 5 min at 233 x g. […]

[1] = curve of first compound, second compound 0.3 µM
[2] = curve of first compound, second compound 0.949 µM
[3] = curve of first compound, second compound 3 µM
[4] = curve of first compound, second compound 9.49 µM
[5] = curve of first compound, second compound 30 µM
[6] = second compound 0.3 µM, first compound 0.316 µM
[7] = second compound 0.3 µM, first compound 1 µM
[8] = second compound 0.3 µM, first compound 3.16 µM
[9] = second compound 0.3 µM, first compound 10 µM
[10] = second compound 0.949 µM, first compound 0.316 µM
[11] = second compound 0.949 µM, first compound 1 µM
[12] = second compound 0.949 µM, first compound 3.16 µM
[13] = second compound 0.949 µM, first compound 10 µM
[14] = second compound 3 µM, first compound 0.316 µM
[15] = second compound 3 µM, first compound 1 µM
[16] = second compound 3 µM, first compound 3.16 µM
[17] = second compound 3 µM, first compound 10 µM
[18] = second compound 9.49 µM, first compound 0.316 µM
[19] = second compound 9.49 µM, first compound 1 µM
[20] = second compound 9.49 µM, first compound 3.16 µM
[21] = second compound 9.49 µM, first compound 10 µM
[22] = second compound 30 µM, first compound 0.316 µM
[23] = second compound 30 µM, first compound 1 µM
[24] = second compound 30 µM, first compound 3.16 µM
[25] = second compound 30 µM, first compound 10 µM
[26] = second compound 0.3 µM, first compound 0.0316 µM
[27] = second compound 0.3 µM, first compound 0.1 µM
[28] = second compound 0.949 µM, first compound 0.0316 µM
[29] = second compound 0.949 µM, first compound 0.1 µM
[30] = second compound 3 µM, first compound 0.0316 µM
[31] = second compound 3 µM, first compound 0.1 µM
[32] = second compound 9.49 µM, first compound 0.0316 µM
[33] = second compound 9.49 µM, first compound 0.1 µM
[34] = second compound 30 µM, first compound 0.0316 µM
[35] = second compound 30 µM, first compound 0.1 µM
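Also: spheroids exposed to drugs for seven days before the viability read.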

## CCCS(=O)(=O)Nc1ccc(F)c(C(=O)c2c[nH]c3ncc(-c4ccc(Cl)cc4)cc23)c1F + CC(C)NCC(C(=O)N1CCN(c2ncnc3c2C(C)CC3O)CC1)c1ccc(Cl)cc1
[1]
  IC50: > 100 µM
[2]
  IC50: > 100 µM
[3]
  IC50: > 100 µM
[4]
  IC50: > 100 µM
[5]
  IC50: > 100 µM
[6]
  viability, T/C: 83.8%
[7]
  viability, T/C: 99.5%
[8]
  viability, T/C: 96.9%
[9]
  viability, T/C: 102%
Second compound 0.3 µM, first compound 31.6 µM
  viability, T/C: 95.7%
Second compound 0.3 µM, first compound 100 µM
  viability, T/C: 120%
[10]
  viability, T/C: 86.9%
[11]
  viability, T/C: 89.7%
[12]
  viability, T/C: 86.4%
[13]
  viability, T/C: 69.3%
Second compound 0.949 µM, first compound 31.6 µM
  viability, T/C: 87.2%
Second compound 0.949 µM, first compound 100 µM
  viability, T/C: 86.9%
[14]
  viability, T/C: 72.7%
[15]
  viability, T/C: 77.3%
[16]
  viability, T/C: 91.2%
[17]
  viability, T/C: 76.9%
Second compound 3 µM, first compound 31.6 µM
  viability, T/C: 68.7%
Second compound 3 µM, first compound 100 µM
  viability, T/C: 74.5%
[18]
  viability, T/C: 63.8%
[19]
  viability, T/C: 70%
[20]
  viability, T/C: 72.2%
[21]
  viability, T/C: 62.8%
Second compound 9.49 µM, first compound 31.6 µM
  viability, T/C: 92.2%
Second compound 9.49 µM, first compound 100 µM
  viability, T/C: 68.8%
[22]
  viability, T/C: 68.4%
[23]
  viability, T/C: 61.8%
[24]
  viability, T/C: 79%
[25]
  viability, T/C: 72.1%
Second compound 30 µM, first compound 31.6 µM
  viability, T/C: 59.5%
Second compound 30 µM, first compound 100 µM
  viability, T/C: 63.5%

## COC1CC2CCC(C)C(O)(O2)C(=O)C(=O)N2CCCCC2C(=O)OC(C(C)CC2CCC(OCCO)C(OC)C2)CC(=O)C(C)C=C(C)C(O)C(OC)C(=O)C(C)CC(C)C=CC=CC=C1C (stereo unspecified)
Compound 0.000316 µM
  viability, T/C: 107% and 100%
Compound 0.001 µM
  viability, T/C: 94.7% and 93.2%
Compound 0.00316 µM
  viability, T/C: 83.6% and 81.6%
Compound 0.01 µM
  viability, T/C: 78.3% and 67.6%
Compound 0.0316 µM
  viability, T/C: 77.4% and 80.3%
Compound 0.1 µM
  viability, T/C: 66.3% and 64.1%
Curve of compound
  IC50: > 0.1 µM

## CC(C)(C)c1nc(-c2cccc(NS(=O)(=O)c3c(F)cccc3F)c2F)c(-c2ccnc(N)n2)s1 + CC(C)NCC(C(=O)N1CCN(c2ncnc3c2C(C)CC3O)CC1)c1ccc(Cl)cc1
[1]
  IC50: > 10 µM
[2]
  IC50: > 10 µM
[3]
  IC50: > 10 µM
[4]
  IC50: > 10 µM
[5]
  IC50: > 10 µM
[26]
  viability, T/C: 109%
[27]
  viability, T/C: 92.8%
[6]
  viability, T/C: 110%
[7]
  viability, T/C: 90.7%
[8]
  viability, T/C: 65.1%
[9]
  viability, T/C: 82.6%
[28]
  viability, T/C: 101%
[29]
  viability, T/C: 96.4%
[10]
  viability, T/C: 86.8%
[11]
  viability, T/C: 84.4%
[12]
  viability, T/C: 73.8%
[13]
  viability, T/C: 71.8%
[30]
  viability, T/C: 80.6%
[31]
  viability, T/C: 78.3%
[14]
  viability, T/C: 91.1%
[15]
  viability, T/C: 61.1%
[16]
  viability, T/C: 63.5%
[17]
  viability, T/C: 65.5%
[32]
  viability, T/C: 73.2%
[33]
  viability, T/C: 78.8%
[18]
  viability, T/C: 68.2%
[19]
  viability, T/C: 64.7%
[20]
  viability, T/C: 83.1%
[21]
  viability, T/C: 57%
[34]
  viability, T/C: 61.9%
[35]
  viability, T/C: 73.8%
[22]
  viability, T/C: 64.6%
[23]
  viability, T/C: 70.1%
[24]
  viability, T/C: 67.5%
[25]
  viability, T/C: 75.3%

## CC(C)CC(NC(=O)CNC(=O)c1cc(Cl)ccc1Cl)B1OC(=O)CC(CC(=O)O)(C(=O)O)O1 (stereo unspecified)
Compound 0.000316 µM
  viability, T/C: 99.7% and 101%
Compound 0.001 µM
  viability, T/C: 110% and 108%
Compound 0.00316 µM
  viability, T/C: 102% and 83.4%
Compound 0.01 µM
  viability, T/C: 103% and 92.3%
Compound 0.0316 µM
  viability, T/C: 91.4% and 105%
Compound 0.1 µM
  viability, T/C: 19.5% and 23.7%
Curve of compound
  IC50: 0.0614 µM and 0.0665 µM

## CC(C)n1nc(-c2ccc3oc(N)nc3c2)c2c(N)ncnc21 + CC(C)NCC(C(=O)N1CCN(c2ncnc3c2C(C)CC3O)CC1)c1ccc(Cl)cc1
[1]
  IC50: > 0.1 µM
[2]
  IC50: > 0.1 µM
[3]
  IC50: > 0.1 µM
[4]
  IC50: > 0.1 µM
[5]
  IC50: > 0.1 µM
Second compound 0.3 µM, first compound 0.000316 µM
  viability, T/C: 112%
Second compound 0.3 µM, first compound 0.001 µM
  viability, T/C: 98.7%
Second compound 0.3 µM, first compound 0.00316 µM
  viability, T/C: 89.5%
Second compound 0.3 µM, first compound 0.01 µM
  viability, T/C: 90.6%
[26]
  viability, T/C: 78.2%
[27]
  viability, T/C: 60.8%
Second compound 0.949 µM, first compound 0.000316 µM
  viability, T/C: 104%
Second compound 0.949 µM, first compound 0.001 µM
  viability, T/C: 84.9%
Second compound 0.949 µM, first compound 0.00316 µM
  viability, T/C: 83.9%
Second compound 0.949 µM, first compound 0.01 µM
  viability, T/C: 68.1%
[28]
  viability, T/C: 65.3%
[29]
  viability, T/C: 57.2%
Second compound 3 µM, first compound 0.000316 µM
  viability, T/C: 84.7%
Second compound 3 µM, first compound 0.001 µM
  viability, T/C: 81.8%
Second compound 3 µM, first compound 0.00316 µM
  viability, T/C: 72.4%
Second compound 3 µM, first compound 0.01 µM
  viability, T/C: 63.4%
[30]
  viability, T/C: 69.5%
[31]
  viability, T/C: 58.9%
Second compound 9.49 µM, first compound 0.000316 µM
  viability, T/C: 74.8%
Second compound 9.49 µM, first compound 0.001 µM
  viability, T/C: 77.1%
Second compound 9.49 µM, first compound 0.00316 µM
  viability, T/C: 74.6%
Second compound 9.49 µM, first compound 0.01 µM
  viability, T/C: 70.1%
[32]
  viability, T/C: 66.5%
[33]
  viability, T/C: 60.1%
Second compound 30 µM, first compound 0.000316 µM
  viability, T/C: 61.4%
Second compound 30 µM, first compound 0.001 µM
  viability, T/C: 64.7%
Second compound 30 µM, first compound 0.00316 µM
  viability, T/C: 59%
Second compound 30 µM, first compound 0.01 µM
  viability, T/C: 64.5%
[34]
  viability, T/C: 78.5%
[35]
  viability, T/C: 59.7%

## CCCS(=O)(=O)Nc1ccc(F)c(C(=O)c2c[nH]c3ncc(-c4ccc(Cl)cc4)cc23)c1F
Compound 0.316 µM
  viability, T/C: 81.8% and 103%
Compound 1 µM
  viability, T/C: 84.5% and 105%
Compound 3.16 µM
  viability, T/C: 114% and 104%
Compound 10 µM
  viability, T/C: 103% and 121%
Compound 31.6 µM
  viability, T/C: 103% and 89%
Compound 100 µM
  viability, T/C: 99% and 98.9%
Curve of compound
  IC50: > 100 µM
